Test results as given in article PMC8086754 (Journal of medicinal chemistry, 2020).

Assays:
human c-20S β5c = human c-20S β5c (Homo sapiens, UniProt P28074); assay: IC50 determination against human c-20S β5c; type: biochemical; settings: relative to the parent compound of the sentence
human i-20S β5i [1] = biological target: T1, human i-20S β5i (Homo sapiens, UniProt P28062); assay: IC50 determination against human i-20S β5i; type: biochemical; settings: for inhibitory activity against β5i (SAR statement in words): relative to the parent compound of the sentence; for reduction in β5i activity: relative to PKS2086
[2] = test system: T cell proliferation in PBMCs; assay: Human PBMC proliferation assay; type: cell-based
human i-20S β5i [3] = biological target: T1, human i-20S β5i; settings: previously reported; cited from earlier work
α-chymotrypsin = α-chymotrypsin (Bos taurus, UniProt P00766); assay: Protease counter-screen, α-chymotrypsin; type: biochemical; settings: compounds at 100, 33.3 and 11.1 μM
cathepsin L = cathepsin L (Homo sapiens, UniProt P07711); assay: Protease counter-screen, cathepsin L; type: biochemical; settings: compounds at 100, 33.3 and 11.1 μM
Chain of cathepsin L (P07711 114-333, species assumed): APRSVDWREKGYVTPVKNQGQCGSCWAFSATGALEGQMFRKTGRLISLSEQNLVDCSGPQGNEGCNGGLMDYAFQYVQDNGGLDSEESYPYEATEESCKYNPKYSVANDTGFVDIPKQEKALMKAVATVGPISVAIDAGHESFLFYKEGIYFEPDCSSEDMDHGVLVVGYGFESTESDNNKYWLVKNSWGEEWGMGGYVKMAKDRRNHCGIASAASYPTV

Row | Compound | inhibitory activity against β5c (SAR statement in words) (human c-20S β5c) | inhibitory activity against β5i (SAR statement in words) (human i-20S β5i [1]) | further results
1 | COC[C@H](NC(=O)CCc1ccccc1)C(=O)N[C@@H](C)C(=O)NCc1cccc2ccccc12 [PKS2048] | abolished the inhibitory activities | abolished the inhibitory activities | 
2 | COC[C@H](NC(=O)[C@H](CCC(=O)NC(C)(C)C)NS(=O)(=O)c1ccc(C)cc1)C(=O)NCc1ccc(F)c2ccccc12 [PKS21265] |  |  | greater potency against T cells ([2]; compared to PKS21209): 2 fold; greater potency against T cells ([2]; compared to PKS21266): 5 fold
3 | C[C@H](NC(=O)[C@H](CCC(=O)NC(C)(C)C)NC(=O)CCc1ccccc1)C(=O)NCc1ccc(F)c2ccccc12 [PKS21210] |  | equipotent | 
4 | CC(C)(C)ONC(=O)C[C@H](NC(=O)CCc1ccccc1)C(=O)N[C@@H](Cc1ccc(F)cc1)C(=O)NCc1cccc2ccccc12 [DPLG3] |  |  | β5i inhibitory potency (human i-20S β5i [3]): single-digit nanomolar potency
5 | COC[C@H](NC(=O)[C@H](CC(=O)N(C)C)NC(=O)CCc1ccccc1)C(=O)NCc1cccc2ccccc12 [Compound 2230BP] | significant loss of affinity |  | 
6 | COC[C@H](NC(=O)[C@H](CC(=O)NOC(C)(C)C)NC(=O)CCc1ccccc1)C(=O)NCc1cccc(OC)c1 [PKS2160] |  |  | selectivity for β5i over β5c (statement in words) (human i-20S β5i [1]): abolished selectivity
7 | COC[C@H](NC(=O)[C@H](CC(=O)NOC(C)(C)C)NC(=O)CCc1ccccc1)C(=O)NCc1cccc2cccnc12 [PKS2220] |  |  | reduction in β5i activity (human i-20S β5i [1]): 19 fold
8 | COC[C@H](NC(=O)[C@H](CC(=O)N1CCC1)NC(=O)CCc1ccccc1)C(=O)NCc1cccc2ccccc12 [PKS2209] | significant loss of affinity |  | 
9 | C[C@H](NC(=O)[C@H](CC(=O)NOC(C)(C)C)NC(=O)CCc1ccccc1)C(=O)NCc1cccc2ncccc12 [PKS2073] | eliminated inhibitory activity | eliminated inhibitory activity | 
10 | C[C@H](NC(=O)[C@H](CC(=O)NOC(C)(C)C)NC(=O)CCc1ccccc1)C(=O)NCc1ccnc2ccccc12 [PKS2068] | eliminated inhibitory activity | eliminated inhibitory activity | 
11 | COC[C@H](NC(=O)[C@H](CC(=O)NOC(C)(C)C)NC(=O)CCc1ccccc1)C(=O)NCc1cccc(OC)c1OC [PKS2211] |  |  | selectivity for β5i over β5c (statement in words) (human i-20S β5i [1]): abolished selectivity
12 | COC[C@H](NC(=O)[C@H](CC(=O)NOC(C)(C)C)NC(=O)CCc1ccccc1)C(=O)NCc1cccc2c1NCCC2 [PKS2226] |  |  | reduction in β5i activity (human i-20S β5i [1]): 114 fold
13 | NC(=O)C[C@H](NC(=O)CCc1ccccc1)C(=O)N[C@@H](Cc1ccc(F)cc1)C(=O)NCc1cccc2ccccc12 [PKS21083] | abolished the inhibitory activities |  | 
14 | C[C@H](NC(=O)[C@H](CC(=O)NC(C)(C)C)NC(=O)C(=O)c1c[nH]c2ccccc12)C(=O)NCc1cccc2ccccc12 [PKS3053] |  |  | inhibition of α-chymotrypsin (α-chymotrypsin): weak inhibition; inhibition of cathepsin L (cathepsin L): weak inhibition; activity against T cells relative to comparator ([2]; compared to PKS21210): two times more active; activity against T cells relative to comparator ([2]; compared to PKS21272): > 3 times
15 | C[C@H](NC(=O)[C@H](CC(=O)NOC(C)(C)C)NC(=O)CCc1ccccc1)C(=O)NCc1cccc2[nH]ccc12 [PKS2083] | increased activity against β5c | decreased potency against β5i | 
